The conditions of series [1]: in vivo; cited from earlier work.
Series [2] is described as follows: Content of umeclidinium bromide and vilanterol trifenatate in the inhalation solutions (tested results). The class given is physicochemical. The procedure:
50% benzalkonium chloride and tween-80 according to table 1, were dissolved in 16 g of 95% ethanol for three times, and then transferred into 100 ml volumetric flask. […] Finally, the flask was made to volume with purified water.
50% benzalkonium chloride and tween-80 according to table 3, were dissolved in 95% ethanol according to table 3 for three times, and then transferred into 100 ml volumetric flask. […] Finally, the flask was made to volume with purified water.
50% benzalkonium chloride and tween-80 according to table 5, were dissolved in 95% ethanol according to table 5 for three times, and then transferred into 100 ml volumetric flask. […] Finally, the flask was made to volume with purified water.

As to `OC(c1ccccc1)(c1ccccc1)C12CC[N+](CCOCc3ccccc3)(CC1)CC2.[Br-]` [Umeclidinium bromide, 1-[2-(Benzyloxy)ethyl]-4-(hydroxydiphenylmethyl)-1-azoniabicyclo [2.2.2] octane bromide], the oral bioavailability entry in series [1] was “poor”. The “Dissolution in the solution containing ethanol and tween-80” value is “completely dissolved” in series [2] (sample I and sample II (table 2)); “completely dissolved” in series [2] (sample III, sample IV and sample V (table 4)); “completely dissolved” in series [2] (sample VI, sample VII and sample VIII (table 6)).
